From ChEMBL document CHEMBL3091415, “Aza-cycloisodityrosine analogue of RA-VII, an antitumor bicyclic hexapeptide” (Bioorg Med Chem Lett, 2013) come the findings set out here.

Structures are written as SMILES. ≈ marks a conversion by molar mass, not a printed value.

One experiment deals with HCT-116. Description: Cytotoxicity against human HCT116 cells after 48 hrs by MTT assay. It is filed as functional, cell-based. Particulars: HCT-116, 48 h.
Another experiment concerns HL-60. The experiment can be described thus: Cytotoxicity against human HL60 cells after 48 hrs by MTT assay. It is filed as functional, cell-based. Particulars: HL-60, 48 h.

On to `COc1ccc(C[C@H]2C(=O)N[C@@H](C)C(=O)N(C)[C@H]3Cc4ccc(cc4)Oc4cc(ccc4OC)C[C@@H](C(=O)N[C@H](C)C(=O)N[C@@H](C)C(=O)N2C)N(C)C3=O)cc1`, for which the IC50 with HCT-116 came to 0.0033 µg/mL (≈ 0.00428 µM); in the experiment with HL-60, 0.0025 µg/mL (≈ 0.00324 µM).

Take `COc1ccc(C[C@H]2C(=O)N[C@@H](C)C(=O)N(C)[C@H]3Cc4ccc(cc4)Nc4cc(ccc4OC)C[C@@H](C(=O)N[C@H](C)C(=O)N[C@@H](C)C(=O)N2C)N(C)C3=O)cc1`: the IC50 is 0.017 µg/mL (≈ 0.0221 µM) in the experiment on HCT-116 and 0.018 µg/mL (≈ 0.0234 µM) with HL-60.
